Measurements published in patent US9561231B2 (AbbVie Inc., priority 2012, dated 2017).

How the values were obtained:
[1] = molecular target: T1, first (BD1: amino acids K57-E168) bromodomain of BRD4 (Homo sapiens, UniProt O60885); test: TR-FRET bromodomain binding assay, BRD4 BD1; settings: TR-FRET assay protocol (A-G, compound concentration range); Ki calculated from IC50, probe Kd and probe concentration; read-out: TR-FRET Binding Ki: BRD4 (BDI_K57-E168)
T1 construct: His-tagged first (BD1: amino acids K57-E168)
Description: (§1) A time-resolved fluorescence resonance energy transfer (TR-FRET) assay was used to determine the affinities of compounds of the Examples listed in Table 1 for each bromodomain of BRD4. His-tagged first (BD1: amino acids K57-E168) and second (BD2: amino acids E352-E168) bromodomains of BRD4 were expressed and purified. An Alexa647-labeled BET-inhibitor was used as the fluorescent probe in the assay.
(§2) Compound dilution series were prepared in DMSO via an approximately 3-fold serial dilution from one of the following:
(§3) or 5-fold serial dilution from one of the following:
(§4) Assay method A: 2.5 mM-800 nM
(§5) For Assay methods A, C, D, and F: Compounds were then diluted 6:100 in assay buffer (20 mM Sodium Phosphate, pH 6.0, 50 mM NaCl, 1 mM Ethylenediaminetetraacetic acid, 0.01% Triton X-100, 1 mM DL-Dithiothreitol) to yield 3× working solutions. […] of this solution were added to the assay plate to reach a final volume of 18 μL.
(§6) TR-FRET data were normalized to the means of 24 no-compound controls (“high”) and 8 controls containing 1 μM un-labeled probe (“low”). Percent inhibition was plotted as a function of compound concentration and the data were fit with the 4 parameter logistic equation to obtain IC50s. Inhibition constants (Ki) were calculated from the IC50s, probe Kd and probe concentration. Typical Z′ values were between 0.65 and 0.75.

[2] = molecular target: T2, second (BD2: amino acids E352-E168) bromodomain of BRD4 (Homo sapiens, UniProt O60885); test: TR-FRET bromodomain binding assay, BRD4 BD2; settings: TR-FRET assay protocol (A-G, compound concentration range); Ki calculated from IC50, probe Kd and probe concentration; read-out: TR-FRET Binding Ki: BRD4 (BDII_E352-M457)
T2 construct: protocol
Description: as §1, §2, §3, §4, §5, §6

## CC(=O)Nc1cncc(-c2cc(=O)n(C)nc2-c2ccccc2Oc2ccccc2)c1 [Example 121, N-{5-[1-methyl-6-oxo-3-(2-phenoxyphenyl)-1,6-dihydropyridazin-4-yl]pyridin-3-yl}acetamide]
[1]
  Ki: 1.12 µM
[2]
  Ki: 2.96 µM

## CNC(=O)c1cncc(-c2cc(=O)n(C)nc2-c2ccccc2Oc2ccccc2)c1 [Example 122, N-methyl-5-[1-methyl-6-oxo-3-(2-phenoxyphenyl)-1,6-dihydropyridazin-4-yl]pyridine-3-carboxamide]
[1]
  Ki: 8.56 µM
[2]
  Ki: 4.52 µM

## CC(C)Oc1ccc(-c2cc(=O)n(C)nc2-c2ccccc2Oc2ccccc2)cn1 [Example 123, 2-methyl-6-(2-phenoxyphenyl)-5-[6-(propan-2-yloxy)pyridin-3-yl]pyridazin-3(2H)-one]
[1]
  Ki: 7.26 µM
[2]
  Ki: 1.17 µM

## CC(=O)c1cccc(-c2cc(=O)n(C)nc2-c2ccccc2Oc2ccccc2)c1F [Example 124, 5-(3-acetyl-2-fluorophenyl)-2-methyl-6-(2-phenoxyphenyl)pyridazin-3(2H)-one]
[1]
  Ki: 8.12 µM
[2]
  Ki: 17.7 µM

## COc1ccc(-c2cc(=O)n(C)nc2-c2ccccc2Oc2ccccc2)c(OC)n1 [Example 125, 5-(2,6-dimethoxypyridin-3-yl)-2-methyl-6-(2-phenoxyphenyl)pyridazin-3(2H)-one]
[1]
  Ki: > 13 µM
[2]
  Ki: 16 µM

## COC(=O)c1ccccc1-c1cc(=O)n(C)nc1-c1ccccc1Oc1ccccc1 [Example 126, methyl 2-[1-methyl-6-oxo-3-(2-phenoxyphenyl)-1,6-dihydropyridazin-4-yl]benzoate]
[1]
  Ki: 9.34 µM
[2]
  Ki: > 22.2 µM

## CNC(=O)c1cccc(-c2cc(=O)n(C)nc2-c2ccccc2Oc2ccccc2)c1 [Example 128, N-methyl-3-[1-methyl-6-oxo-3-(2-phenoxyphenyl)-1,6-dihydropyridazin-4-yl]benzamide]
[1]
  Ki: 1.64 µM
[2]
  Ki: 0.376 µM

## CC(C)CCn1cc(-c2cc(=O)n(C)nc2-c2ccccc2Oc2ccccc2)cn1 [Example 129, 2-methyl-5-[1-(3-methylbutyl)-1H-pyrazol-4-yl]-6-(2-phenoxyphenyl)pyridazin-3(2H)-one]
[1]
  Ki: 0.52 µM
[2]
  Ki: 0.264 µM

## CC(C)Oc1ncccc1-c1cc(=O)n(C)nc1-c1ccccc1Oc1ccccc1 [Example 130, 2-methyl-6-(2-phenoxyphenyl)-5-[2-(propan-2-yloxy)pyridin-3-yl]pyridazin-3(2H)-one]
[1]
  Ki: > 13 µM
[2]
  Ki: 17.1 µM

## Cn1nc(-c2ccccc2Oc2ccccc2)c(-c2ccc3scnc3c2)cc1=O [Example 131, 5-(1,3-benzothiazol-5-yl)-2-methyl-6-(2-phenoxyphenyl)pyridazin-3(2H)-one]
[1]
  Ki: 6.39 µM
[2]
  Ki: 0.41 µM

## CC(=O)c1ccc(F)c(-c2cc(=O)n(C)nc2-c2ccccc2Oc2ccccc2)c1 [Example 132, 5-(5-acetyl-2-fluorophenyl)-2-methyl-6-(2-phenoxyphenyl)pyridazin-3(2H)-one]
[1]
  Ki: > 13 µM
[2]
  Ki: 8.05 µM

## Cn1nc(-c2ccccc2Oc2ccccc2)c(-c2ccc3c(c2)OCCO3)cc1=O [Example 133, 5-(2,3-dihydro-1,4-benzodioxin-6-yl)-2-methyl-6-(2-phenoxyphenyl)pyridazin-3(2H)-one]
[1]
  Ki: 0.782 µM
[2]
  Ki: 0.159 µM

## COC(C)c1cccc(-c2cc(=O)n(C)nc2-c2ccccc2Oc2ccccc2)c1 (stereo not shown) [Example 134, 5-[3-(1-methoxyethyl)phenyl]-2-methyl-6-(2-phenoxyphenyl)pyridazin-3(2H)-one]
[1]
  Ki: 4.32 µM
[2]
  Ki: 4.06 µM

## COC(C)c1ccc(-c2cc(=O)n(C)nc2-c2ccccc2Oc2ccccc2)cc1 (stereo not shown) [Example 135, 5-[4-(1-methoxyethyl)phenyl]-2-methyl-6-(2-phenoxyphenyl)pyridazin-3(2H)-one]
[1]
  Ki: 0.604 µM
[2]
  Ki: 0.411 µM

## CCOc1cccc(-c2cc(=O)n(C)nc2-c2ccccc2Oc2ccccc2)c1F [Example 136, 5-(3-ethoxy-2-fluorophenyl)-2-methyl-6-(2-phenoxyphenyl)pyridazin-3(2H)-one]
[1]
  Ki: 4.33 µM
[2]
  Ki: 6.7 µM

## Cn1nc(-c2ccccc2Oc2ccccc2)c(-c2ccc3nsnc3c2)cc1=O [Example 137, 5-(2,1,3-benzothiadiazol-5-yl)-2-methyl-6-(2-phenoxyphenyl)pyridazin-3(2H)-one]
[1]
  Ki: 3.26 µM
[2]
  Ki: 1.17 µM

## Cn1nc(-c2ccccc2Oc2ccccc2)c(-c2cncc(NCc3ccccc3)c2)cc1=O [Example 138, 5-[5-(benzylamino)pyridin-3-yl]-2-methyl-6-(2-phenoxyphenyl)pyridazin-3(2H)-one]
[1]
  Ki: 7.43 µM
[2]
  Ki: 3.18 µM

## Cn1nc(-c2ccccc2Oc2ccccc2)c(-c2cccc(N3CCOCC3)c2)cc1=O [Example 139, 2-methyl-5-[3-(morpholin-4-yl)phenyl]-6-(2-phenoxyphenyl)pyridazin-3(2H)-one]
[1]
  Ki: > 1.52 µM
[2]
  Ki: 0.879 µM

## Cn1nc(-c2ccccc2Oc2ccccc2)c(-c2ccc(OCC(F)(F)F)nc2)cc1=O [Example 140, 2-methyl-6-(2-phenoxyphenyl)-5-[6-(2,2,2-trifluoroethoxy)pyridin-3-yl]pyridazin-3(2H)-one]
[1]
  Ki: > 13 µM
[2]
  Ki: 8.21 µM

## Cn1nc(-c2ccccc2Oc2ccccc2)c(-c2cccc(CN3CCOCC3)c2)cc1=O [Example 141, 2-methyl-5-[3-(morpholin-4-ylmethyl)phenyl]-6-(2-phenoxyphenyl)pyridazin-3(2H)-one]
[1]
  Ki: 0.526 µM
[2]
  Ki: 0.297 µM

## Cn1nc(-c2ccccc2Oc2ccccc2)c(-c2cccc(C(=O)N3CCSCC3)c2)cc1=O [Example 142, 2-methyl-6-(2-phenoxyphenyl)-5-[3-(thiomorpholin-4-ylcarbonyl)phenyl]pyridazin-3(2H)-one]
[1]
  Ki: 2.4 µM
[2]
  Ki: 1.73 µM

## Cn1nc(-c2ccccc2Oc2ccccc2)c(-c2cncc(NC3CCCC3)c2)cc1=O [Example 143, 5-[5-(cyclopentylamino)pyridin-3-yl]-2-methyl-6-(2-phenoxyphenyl)pyridazin-3(2H)-one]
[1]
  Ki: 3.2 µM
[2]
  Ki: 5.47 µM

## Cn1nc(-c2ccccc2Oc2ccccc2)c(-c2cncc(C(=O)NC3CC3)c2)cc1=O [Example 144, N-cyclopropyl-5-[1-methyl-6-oxo-3-(2-phenoxyphenyl)-1,6-dihydropyridazin-4-yl]pyridine-3-carboxamide]
[1]
  Ki: > 2.38 µM
[2]
  Ki: > 3.37 µM

## Cn1nc(-c2ccccc2Oc2ccccc2)c(-c2cncc(C(=O)NC3CCCC3)c2)cc1=O [Example 145, N-cyclopentyl-5-[1-methyl-6-oxo-3-(2-phenoxyphenyl)-1,6-dihydropyridazin-4-yl]pyridine-3-carboxamide]
[1]
  Ki: > 13 µM
[2]
  Ki: 10.2 µM

## CCN(CC)S(=O)(=O)c1cccc(-c2cc(=O)n(C)nc2-c2ccccc2Oc2ccccc2)c1 [Example 146, N,N-diethyl-3-[1-methyl-6-oxo-3-(2-phenoxyphenyl)-1,6-dihydropyridazin-4-yl]benzenesulfonamide]
[1]
  Ki: > 13 µM
[2]
  Ki: 12.2 µM

## Cn1nc(-c2ccccc2Oc2ccccc2)c(-c2ccc(C(=O)N3CCOCC3)cc2)cc1=O [Example 147, 2-methyl-5-[4-(morpholin-4-ylcarbonyl)phenyl]-6-(2-phenoxyphenyl)pyridazin-3(2H)-one]
[1]
  Ki: 0.26 µM
[2]
  Ki: 0.168 µM

## CN(C(=O)c1cccc(-c2cc(=O)n(C)nc2-c2ccccc2Oc2ccccc2)c1)C1CCCCC1 [Example 148, N-cyclohexyl-N-methyl-3-[1-methyl-6-oxo-3-(2-phenoxyphenyl)-1,6-dihydropyridazin-4-yl]benzamide]
[1]
  Ki: > 13 µM
[2]
  Ki: 19.7 µM

## CN(C)CCCNC(=O)c1ccc(-c2cc(=O)n(C)nc2-c2ccccc2Oc2ccccc2)cc1 [Example 150, N-[3-(dimethylamino)propyl]-4-[1-methyl-6-oxo-3-(2-phenoxyphenyl)-1,6-dihydropyridazin-4-yl]benzamide]
[1]
  Ki: 0.471 µM
[2]
  Ki: 0.411 µM

## Cn1nc(-c2ccccc2Oc2ccccc2)c(-c2ccc(N3CCNCC3)nc2)cc1=O [Example 151, 2-methyl-6-(2-phenoxyphenyl)-5-[6-(piperazin-1-yl)pyridin-3-yl]pyridazin-3(2H)-one]
[1]
  Ki: 0.4 µM
[2]
  Ki: 0.258 µM

## CN(C)C(=O)c1cc(F)cc(-c2cc(=O)n(C)nc2-c2ccccc2Oc2ccccc2)c1 [Example 152, 3-fluoro-N,N-dimethyl-5-[1-methyl-6-oxo-3-(2-phenoxyphenyl)-1,6-dihydropyridazin-4-yl]benzamide]
[1]
  Ki: 6.62 µM
[2]
  Ki: 7.27 µM

## Cn1nc(-c2ccccc2Oc2ccccc2)c(-c2ccnc(N3CCOCC3)c2)cc1=O [Example 153, 2-methyl-5-[2-(morpholin-4-yl)pyridin-4-yl]-6-(2-phenoxyphenyl)pyridazin-3(2H)-one]
[1]
  Ki: 5.96 µM
[2]
  Ki: 3.09 µM

## CC1CCN(C(=O)c2cccc(-c3cc(=O)n(C)nc3-c3ccccc3Oc3ccccc3)c2)CC1 [Example 154, 2-methyl-5-{3-[(4-methylpiperidin-1-yl)carbonyl]phenyl}-6-(2-phenoxyphenyl)pyridazin-3(2H)-one]
[1]
  Ki: 11.9 µM
[2]
  Ki: 5.94 µM
